Each structure is given as a SMILES string.

The data set in a line: Human HepG2 cell viability assay in 384 well format. The data set is classed as toxicity, cell-based. On the set-up: dose 125 nL, time 70.5 hour; cytotoxicity at 70.5 h: concentration not given beside the values. The settings on record: HepG2 cells, read-out: Inhibition.
For the molecule `CCc1ccc(CN2C[C@@H](c3nc(C)no3)C[C@H]3OCC[C@H]32)o1`, the cytotoxicity at 70.5 h was -3.87%.

On to `Cc1cnn(C2CCCN(C(=O)c3cn(-c4ccccc4)nn3)C2)c1` (centres undefined), for which the cytotoxicity at 70.5 h is -6.41%.

With `CCc1oc(C(=O)N2CCC(N(CC)C(C)=O)C2)cc1CN(CC)CC` (centres undefined), the cytotoxicity at 70.5 h is -12.3%. Regarding `Cc1cc(C2CCCN(S(=O)(=O)c3cn[nH]c3)C2)ccn1` (centres undefined), the cytotoxicity at 70.5 h is -7.27%.

With `CNC(=O)c1cccc(NC(=O)NC(C)CCc2cccn2C)c1C` (centres undefined), the cytotoxicity at 70.5 h was found to be 5.28%.

Regarding `Cc1cnc(N2C[C@@H]3[C@@H](C2)OCC(=O)N3CC(C)C)nc1`, the cytotoxicity at 70.5 h is 2.16%. Regarding `CCC(=O)NCC(=O)NC(C)c1sc(-c2ccccc2F)nc1C` (centres undefined), the cytotoxicity at 70.5 h is 10.3%. In the case of `COCCN(CC(C)C)c1cc(C)ncn1`, the cytotoxicity at 70.5 h worked out at 6.75%. `Cn1cc(C2CCCN2C(=O)c2ccc(Br)o2)cn1` (centres undefined): the cytotoxicity at 70.5 h was -10.2%.

Take `O=S(=O)(CCCn1cncn1)Cc1ccccc1Cl`: the cytotoxicity at 70.5 h was -6.92%. On to `CN1C(=O)[C@H]2CC[C@@H]1CN(C(=O)c1nnc3n1CCCCC3)C2`, for which the cytotoxicity at 70.5 h was -6.73%. In the case of `CC(C)c1noc(CN(C)C(=O)c2ncn[nH]2)n1`, the cytotoxicity at 70.5 h is 3.61%. On to `Cc1noc(C)c1CN1CCCC(CN(C(=O)OC(C)(C)C)C(C)C)C1` (centres undefined), for which the cytotoxicity at 70.5 h is -3.37%. Turning to `CCc1nc(C)c(C(=O)N2C[C@H]3CC[C@@H]2CN(S(=O)(=O)N(C)C)C3)s1`, the cytotoxicity at 70.5 h is 8.88%.

For the molecule `CCS(=O)(=O)N1CCC(n2nc(-c3cc(C)oc3C)ccc2=O)CC1`, the cytotoxicity at 70.5 h is 24.5%. Consider `Cc1cnc(NC(=O)N2CCCCCC2)s1`, for which the cytotoxicity at 70.5 h was -4.75%. With `Cc1cccc(C)c1OC1CN(C(=O)C2CCN(C(=O)N(C)C)CC2)C1`, the cytotoxicity at 70.5 h worked out at 29.8%. Take `CCN(CC)CCCC(C)NC(=O)c1ccccc1-n1cccn1` (centres undefined): the cytotoxicity at 70.5 h was -9.46%. Turning to `c1ccc(-n2nnnc2CNCC2CCCN2c2cccnn2)cc1` (centres undefined), the cytotoxicity at 70.5 h was -0.967%.

Regarding `OC1(CNCCCN2CCc3ccccc32)CCNC1` (centres undefined), the cytotoxicity at 70.5 h came out at 22.2%. As for `Cc1cc(S(=O)(=O)NCC2CNCCOC2)c(C)cc1Cl` (centres undefined), the cytotoxicity at 70.5 h came out at 1.99%. In the case of `Cn1ccc(CN2CCOCC23CCNCC3)n1` it was -6.05%; in that of `O=C(Nc1cnc2n1CCCC2)C1CCNCC1`, 26.5%; in that of `O=C(O)c1c(-c2cccnc2)ncc2c1CCN(Cc1ccccn1)C2`, -8.57%. `CCCOC(=O)C(C)Sc1nnnn1C1CCOCC1` (centres undefined): the cytotoxicity at 70.5 h is -2.83%. For `O=C(CCn1ccc2ncccc2c1=O)N1CCCC1`, the cytotoxicity at 70.5 h came to 0.26%. `CC(C(=O)N1CCn2cncc2C1)N1CCCC1` (centres undefined): the cytotoxicity at 70.5 h is -0.791%. For `O=C(NCCC1CCN(CC(F)(F)F)CC1)C1CCOC1` (centres undefined), the cytotoxicity at 70.5 h amounted to 3.01%.

Regarding `O=S(=O)(NC1CCCOC1)c1ccc(C(F)(F)F)nc1` (centres undefined), the cytotoxicity at 70.5 h was -1.78%. With `CCNC(=O)CCC(=O)NC(Cc1ccccc1)c1sccc1C` (centres undefined), the cytotoxicity at 70.5 h is -7.03%. Take `COCCO[C@@H]1CCN(C(=O)c2ccnnc2)[C@H]1Cc1cnn(C)c1`: the cytotoxicity at 70.5 h was -116%. In the case of `CC(C)(O)c1cc(CC2(NCc3ccco3)COC2)no1` it was -7.88%. Consider `Cc1cccc2c1OCCC2NCc1c(C(C)C)nn(C)c1N(C)C` (centres undefined), for which the cytotoxicity at 70.5 h is -10.6%. For the molecule `CCN(CC)C(=O)[C@@H]1C[C@@H](N)CN1c1nc(N(C)C)nc(C)c1C`, the cytotoxicity at 70.5 h amounted to 2.56%. Turning to `CCN1CC(COC(=O)c2cc(Br)ccc2F)CC1=O` (centres undefined), the cytotoxicity at 70.5 h is 0.441%. As to `COc1cccn(CC(=O)N2CCCC3(CCOCC3)C2)c1=O`, the cytotoxicity at 70.5 h was -1.15%. In the case of `CCCC1CCCN(C(=O)Nc2ccnc(C(=O)N(C)C)c2)CC1` (centres undefined) it was -6.22%; in that of `CN1CCC(NC(=O)[C@H]2CC[C@@H]3[C@@H](CCN3c3ncccn3)O2)CC1`, -6.76%. In the case of `COCC(=O)N1CC[C@H]2O[C@@H](C)C[C@H]2C1`, the cytotoxicity at 70.5 h was -8.73%. Turning to `Cc1cc(C)n(C2CCN(c3ncnc4c3CCC4)C2)n1` (centres undefined), the cytotoxicity at 70.5 h was 12.6%. The same measure for `COc1ccc(F)cc1C(=O)Nc1nnc(C)s1`: 6.71%; for `O=C(NCc1cc[nH]n1)NCC(c1ccco1)N1CCCC1` (centres undefined): -13.5%. As for `CNC(=O)[C@H]1C[C@@H]2CN(S(=O)(=O)Cc3ccccc3)C[C@@H]2N1C`, the cytotoxicity at 70.5 h was -3.87%. Consider `CC(C)CC(=O)NC[C@H]1CC[C@H](C(c2ccccn2)N(C)C)CC1` (some centres undefined), for which the cytotoxicity at 70.5 h is -3.76%. On to `N#Cc1ccc(NCc2cccnc2N2CCC(C(N)=O)CC2)cn1`, for which the cytotoxicity at 70.5 h was -7.33%. With `N#Cc1c(SCCN2CCCCCC2)sc2c(O)cc(O)nc12`, the cytotoxicity at 70.5 h came out at 12.1%. Take `CCn1cc(CN(C)S(=O)(=O)c2ccccc2)cn1`: the cytotoxicity at 70.5 h is -6.94%. For the molecule `c1cncc(COCc2nnn3c2CN(Cc2ccsc2)CC3)c1`, the cytotoxicity at 70.5 h was -2.9%. On to `COC(=O)CCn1ccc(=O)c2ccc(OC)cc21`, for which the cytotoxicity at 70.5 h came out at 19.7%. Take `CCCc1noc(C(C)N2CCN(CCn3ccccc3=O)CC2)n1` (centres undefined): the cytotoxicity at 70.5 h was -2.24%. `O=C(NC1COC2(CCN(Cc3cccs3)CC2)C1)c1ccccn1` (centres undefined): the cytotoxicity at 70.5 h is -2.35%. For the molecule `CC(=O)NCCc1cc2nc(-c3ccncc3)ccn2n1`, the cytotoxicity at 70.5 h is -4.37%. In the case of `O=C(NC1CCCc2nc(N3CCCCC3)ncc21)C1CCCC1` (centres undefined) it was -4.53%; in that of `CCOCCCNC(=O)C1(C)CCC(=O)N1c1ccccc1F` (centres undefined), -3.95%; in that of `O=c1[nH]nc2c(N3CCC(NC4CCOCC4)CC3)nccn12`, -11.2%. Turning to `CN(C)C1CCN(C(=O)c2cc3c(s2)CCN3C(=O)C2CC2)CC1`, the cytotoxicity at 70.5 h is -2.71%. In the case of `COc1ccc(NC(=O)C(c2ccc(OC)cc2)N2CCOCC2)cc1` (centres undefined), the cytotoxicity at 70.5 h was determined as 0.848%. The same measure for `O=C(NCCc1cc(N2CCOCC2)nc(NC2CC2)n1)C1CCCO1` (centres undefined): -6.3%.

With `CN(C)C(=O)CN1CCC2(CCN(C(=O)N3CCCC3)CC2)C1=O`, the cytotoxicity at 70.5 h was -3.29%.

Regarding `CC(C)c1ccc(OCCC(=O)N(C)CC(N)=O)cc1`, the cytotoxicity at 70.5 h is -12.9%. Consider `O=C(CO)N1CCC(c2cncc(-c3cccc(Cl)c3)n2)CC1`, for which the cytotoxicity at 70.5 h was -3.18%. With `O=S(=O)(C1CC1)N1CC[C@H](OCC2CC2)[C@@H]1Cc1ccncc1`, the cytotoxicity at 70.5 h is -4.87%.

On to `CCN(C)c1ncnc2c1CCN(C(=O)Cc1ccccn1)CC2`, for which the cytotoxicity at 70.5 h is -9.09%.

In the case of `Cc1cc(C(F)(F)F)nc(C2(C)CCCN2CC(N)=O)n1` (centres undefined), the cytotoxicity at 70.5 h worked out at 11.5%.

Turning to `Cn1ccnc1CCC1CCCCN1Cc1cnc(N2CCCC2)nc1` (centres undefined), the cytotoxicity at 70.5 h is 22.9%.

For `Cc1cc(NC(=O)CN2CCn3c(nnc3-c3ccccc3)C2)no1`, the cytotoxicity at 70.5 h was -1.17%.

In the case of `Cc1cccc(CN2C[C@@H]3OCCN(c4ccnc(N(C)C)n4)[C@@H]3C2)c1`, the cytotoxicity at 70.5 h was 10%. In the case of `Cn1cc(Nc2cccc(C(=O)N(CC(N)=O)C3CCCC3)c2)cn1`, the cytotoxicity at 70.5 h was -3.71%. Turning to `COCCNC(=O)Cn1ccc2cccc(OC)c21`, the cytotoxicity at 70.5 h is 8.67%. For the molecule `Cc1ccc(N2CCCc3sc(C(=O)NCCC#N)nc32)nn1`, the cytotoxicity at 70.5 h is -4.91%.

Turning to `O=C(Cc1ccsc1)N1CCN(CC2CC2)c2ncccc2C1`, the cytotoxicity at 70.5 h is -14%. `N#Cc1ncn(CCC(=O)Nc2cccc(Cl)c2)n1`: the cytotoxicity at 70.5 h is -8.53%.

As to `Cc1ccccc1N1CCCN(C(=O)c2nn(C)cc2Cl)CC1`, the cytotoxicity at 70.5 h turned out to be 27.7%. Take `Cn1ccnc1CN1CCC(CCCc2ccccn2)(C(N)=O)CC1`: the cytotoxicity at 70.5 h was -13.4%.

Take `N#Cc1cccnc1OC1CCN(C(=O)NCc2ccccc2)CC1`: the cytotoxicity at 70.5 h was -4.78%.

For `CN1CCN(CC2(O)CCN(C(=O)CCc3ccccc3F)C2)CC1` (centres undefined), the cytotoxicity at 70.5 h was found to be 1.21%. On to `CC(=O)NCCNC(=O)N(C)Cc1ccc2c(c1)OCCO2`, for which the cytotoxicity at 70.5 h was -12%. For the molecule `CN1CCN(C(=O)C2(NC(N)=O)CCCCC2)Cc2ccccc21`, the cytotoxicity at 70.5 h is -7.76%. Turning to `Fc1ccc2c(C3=CCN(Cc4nnc(C5CCC5)o4)CC3)c[nH]c2c1`, the cytotoxicity at 70.5 h was determined as 2.23%. Consider `COCC1CN(Cc2cc(C)on2)Cc2cnn(C)c21` (centres undefined), for which the cytotoxicity at 70.5 h was -3.91%. Turning to `O=C(CN1CCCC(c2ccn[nH]2)C1)Nc1nncs1` (centres undefined), the cytotoxicity at 70.5 h came to 1.3%. The same measure for `Cc1nn(C)c(C)c1C1CCCN1Cc1nc(-c2ccco2)oc1C` (centres undefined): -2.24%; for `O=C(CN1CCOc2ccccc2C1)NCc1cc2n(n1)CCNC2`: -2.02%; for `Cc1ncsc1C(=O)N1CC(C)Sc2ccccc21` (centres undefined): -8.57%. The same measure for `CCc1cnc(N2CCc3cc(C(=O)NC)c(N(C)C)nc3CC2)nc1`: -13.6%; for `COCCO[C@@H]1CCN(C(=O)c2occc2C)[C@H]1Cc1cnn(C)c1`: -90.5%; for `CCCC1COCCN1Cc1ccc(NC(C)=O)cc1` (centres undefined): -3.46%.

As to `Cc1noc(-c2ccc(Oc3cccc(CN4CCCC4)c3F)nc2)n1`, the cytotoxicity at 70.5 h stood at 16.7%. `Cc1nc(C)n(C2CCCN(C(=O)CCn3cncn3)C2)n1` (centres undefined): the cytotoxicity at 70.5 h is -0.0645%.

Take `COC(=O)N1CCCC(NC(=O)NCc2cccc(C)n2)C1` (centres undefined): the cytotoxicity at 70.5 h was -6.49%. With `COc1cccc(CNc2c(C)cnc3c2c(=O)n(C)c(=O)n3C)c1`, the cytotoxicity at 70.5 h was found to be 35.6%.

For `O=C1CCCc2[nH]c(=O)c(C(=O)N(Cc3ccsc3)C3CC3)cc21`, the cytotoxicity at 70.5 h was -1.04%. In the case of `O=C(c1ccnnc1)N1CCN2C[C@H](OCc3ccccn3)C[C@H]2C1` it was -4.04%; in that of `CO[C@H]1CN(C(=O)c2ccc[nH]2)[C@@H]2COC[C@H]12`, -2.94%. Regarding `CC(C)(C)Cc1noc2ncc(C(=O)N3CCC3)cc12`, the cytotoxicity at 70.5 h is -6.81%. For `CC(C)N(Cc1cccnc1)C(=O)CCSc1ccc(C#N)cc1`, the cytotoxicity at 70.5 h worked out at 5.31%. With `Cc1c(C(=O)N2CCCC2c2cnn(C)c2)nnn1-c1ccccc1` (centres undefined), the cytotoxicity at 70.5 h was -7.15%. In the case of `CC(C)NC(=O)N1CCC2(CC(=O)N(c3ccsc3)C2)C1` (centres undefined) it was -14.3%. As to `Cc1cc2nc(C(C)C)cc(N3CCSCC3)n2n1`, the cytotoxicity at 70.5 h is 16.2%.

The record behind these values is ChEMBL document CHEMBL3507680, “University of Dundee, Gates Library screen for HepG2 cell viability”.
